Data from patent US20190086391A1, “METHOD AND SYSTEM FOR CONTINUOUS BIOSENSING” (Yissum Research Development Company of the Hebrew …, priority 2016, published 2019).
Where “and” joins values, the source holds several entries; their conditions need not be identical. Identical values can stand only once. Like-named read-outs stand apart in the source and are kept apart here.

Key:
HepG2/C3A cells [1] = test: Real-time amperometric glucose and lactate measurements in bioreactor outflow; type: cell-based, human; details: for total glucose uptake rate: 50 μM treated cells
Experimental: Amperometric glucose and lactate sensors were purchased from BioSensor Technology (Berlin, Germany) and embedded in a CNC-fabricated PMMA flow-chamber with an inner volume of 26 μl. The sensors are based on the enzymatic reactions of glucose oxidase, with a linear range of 0.5 mM to 30 mM, and lactate oxidase, with a linear range of 0.5 mM to 20 mM. Both sensors produce H2O2 in amounts proportional to the measured metabolite, which is detected with platinum electrodes under polarized condition. The microfluidic controller (13) was programmed to open a microfluidic valve every hour, allowing a 40 μl medium sample to flow through the switchboard and into the sensors unit. Amperometric measurement lasted 200 seconds and was followed by automated perfusion of PBS washing solution, CAL 4+M calibration buffer (Eschweiler, Germany), and 4 seconds of air bubble acting as a diffusion barrier between samples. Reading was carried out on EmStat3 OEM embedded potentiostat (PalmSens, Netherlands) connected to the central computer.
(§1) Glucose uptake, oxygen uptake and lactate production rates were measured by calculating the change in metabolite concentration between the bioreactor in- and outflow, as function of perfusion rate and cell number as described above. Metabolic rates were calculated assuming negligible contribution to oxygen uptake by fatty acid oxidation and enzymatic activity. Low level of lipids in the culture medium ensured that fatty acid uptake was 50-fold lower than glucose while glutamine contribution to the Krebs cycle was minor (results).

HepG2/C3A cells [2] = test: Flux balance analysis of metabolic pathways and ATP production; type: cell-based, human; details: 50 μM; for ATP production, % of untreated cells: calculated from flux balance; for Glutaminolysis (calculated metabolic flux) / Glycolysis (calculated metabolic flux) / Lipogenesis (calculated metabolic flux) / Respiration (calculated metabolic flux): troglitazone 6 hours, rotenone 3 hours
Experimental: as §1
Based on these assumptions, oxidative phosphorylation flux was calculated by dividing oxygen uptake rate by six. 32 ATP molecules generated by complete oxidation of 1 molecule of glucose were estimated. Glycolysis flux was calculated by dividing lactate production rate by two, with maximal rate defined by glucose uptake rate minus the oxidative phosphorylation flux. ATP production in glycolysis was estimated to be 2 molecules per molecule of glucose. It was assumed that any glucose left over was directed toward lipogenesis, as the contribution of pentose phosphate pathway in nonproliferating cells is minor (31). Finally, it was assumed that excess lactate was produced by glutaminolysis, and confirmed the assumption using offline measurement of glutamine uptake (FIGS. 10A and 10B). ATP production in glutaminolysis was estimated to be 3 molecules per molecule of lactate generated.

HepG2/C3A cells [3] = test: Seahorse Mitochondrial Stress Test (OCR, ECAR), static culture; type: cell-based, human; details: 50 μM; for decrease in maximal mitochondrial capacity: after uncoupler injection
Experimental: HepG2/C3A cells were plated in gelatin-coated SeaHorse XFp cell culture miniplates (Seahorse Bioscience, USA) and cultured for 24 hours. Subsequently, cultures were treated with medium containing 50 μM troglitazone for 6 hours, 50 μM rotenone for 3 hours, or vehicle control prior to initiation of assay. Mitochondrial Stress Test assay was conducted per manufacturer instructions (29). Briefly, cells were incubated in unbuffered XF Base Medium supplemented with 2 mM glutamine, 1 mM sodium pyruvate, and 10 mM glucose (pH 7.4) for 1 hour at 37° C. in a non-CO2 incubator. Basal oxygen consumption rate (OCR) was measured for 30 min, followed by injection of 1 μM oligomycin, a mitochondrial […] inhibitor that completely blocks oxidative phosphorylation. The decrease in OCR due to oligomycin treatment is defined as oxidative phosphorylation rate. 1 μM carbonyl cyanide-4 (trifluoromethoxy) phenylhydrazone (FCCP), an uncoupling agent, is added at 60 min to measure maximal mitochondrial activity followed by complete inhibition at 90 min using a mixture of 0.5 μM antimycin A and rotenone, mitochondrial Complex III and Complex I inhibitors. Basal extracellular acidification rates (ECAR) was measured for 30 min, in the presence of 10 mM glucose, followed by injection of 1 μM oligomycin. The increase in ECAR due to oligomycin treatment was defined as glycolytic capacity. Data are presented normalized to […] cells as determined by Hoechst DNA content assay.

HepG2/C3A cells [4] = test: Seahorse glutamine oxidation assay; type: cell-based, human; details: 50 μM, static culture
Experimental: HepG2/C3A cells were plated in gelatin-coated XFp cell culture miniplates and cultured for 24 hours. Subsequently, cultures were treated with medium containing 50 μM troglitazone for 6 hours, 50 μM rotenone for 3 hours, or vehicle control prior to initiation of assay. Glutamine oxidation assay was conducted per manufacturer instructions. Briefly, cells were incubated in unbuffered XF Base Medium supplemented with 2 mM Glutamine, 1 mM sodium pyruvate, and 10 mM glucose (pH 7.4) for 1 hour at 37° C. in a non-CO2 incubator. Glutamine oxidation was profiled by successive injections of 3 μM BPTES, an allosteric inhibitor of glutaminase (GLS1), and a mixture of 4 μM etomoxir, a carnitine palmitoyl-transferase 1A (CPT1A) inhibitor and 2 μM UK5099 a mitochondrial pyruvate carrier inhibitor, blocking fatty acid oxidation and […], respectively. The decrease in baseline OCR due to BPTES treatment was defined as the rate of glutaminolysis. Data are presented normalized to 10^6 cells as determined by Hoechst DNA content assay.

HepG2/C3A cells [5] = test: JC-1 mitochondrial membrane potential staining; type: cell-based, human; details: 50 μM
Experimental: JC-1 cell permeable dye was purchased from Life Technologies (New York, N.Y.). HepG2/C3A cells were incubated with 50 μM of troglitazone or rotenone for varying durations. To evaluate mitochondrial membrane potential at each time point, cells were incubated with 5 μM JC-1 dye for 30 min, washed with PBS and imaged by confocal microscopy on a LSM700 (Zeiss, Germany). […] Consequently, mitochondrial depolarization is quantified by dividing red over green fluorescence intensity.

HepG2/C3A spheroids = test: Offline glutamine uptake in bioreactor perfusate; type: cell-based, human; details: 50 μM
Experimental: Glutamine concentration was determined using glutamine and glutamate determination kit (Sigma-Aldrich). Bioreactors containing HepG2/C3A spheroids were set up as described in the main text and perfused at 2 μl/min. Perfusate samples were collected for 60 minutes for a total of 120 μl per sample. Glutamine was quantified according to manufacturer directions.

[6] = tested on: primary human hepatocytes; details: cited from earlier work
[7] = 50 μM, after 6 hours of exposure
[8] = 50 μM, within the first 2 hours
[9] = surrogate of lactate production

SMILES: C=C(C)[C@H]1Cc2c(ccc3c2O[C@@H]2COc4cc(OC)c(OC)cc4[C@@H]2C3=O)O1 [rotenone]
- exposure time after which the metabolic shift from oxidative phosphorylation to glycolysis occurred (HepG2/C3A cells [1]; 50 μM): 3 h
- total glucose uptake rate (HepG2/C3A cells [1]): 1.0 nmol/min/10^6
- lactate over glucose ratio (HepG2/C3A cells [1]; 50 μM, 6 hours after exposure): 6.1
- additional drop in glucose uptake (HepG2/C3A cells [1]; [7]): 65%
- change in lactate production (HepG2/C3A cells [1]; [7]): no change
- lactate over glucose ratio (HepG2/C3A cells [1]; 50 μM, within 3 hours after exposure): 2.6
- drop in glucose uptake (HepG2/C3A cells [1]; [8]): 59%
- drop in lactate production (HepG2/C3A cells [1]; [8]): 35%
- lactate over glucose ratio (HepG2/C3A cells [1]; gradual switch to compensatory mechanisms): above 2
- decrease in oxidative phosphorylation flux (HepG2/C3A cells [2]; after 3 hours of exposure): 90%
- increase in glycolysis (flux) (HepG2/C3A cells [2]; after 3 hours of exposure): 34%
- ATP production, % of untreated cells (HepG2/C3A cells [2]): less than 36%
- Glutaminolysis (calculated metabolic flux) (HepG2/C3A cells [2]): 0.56 nmol/min/10^6 cells
- Glycolysis (calculated metabolic flux) (HepG2/C3A cells [2]): 0.97 nmol/min/10^6 cells
- Lipogenesis (calculated metabolic flux) (HepG2/C3A cells [2]): 0 nmol/min/10^6 cells
- Respiration (calculated metabolic flux) (HepG2/C3A cells [2]): 0.03 nmol/min/10^6 cells
- decrease in (mitochondrial) basal metabolic rate (HepG2/C3A cells [3]; static culture): 83% and 83±5%
- decrease in oxidative phosphorylation (HepG2/C3A cells [3]; static culture): 85±5% and 85±8%
- glycolytic capacity change (HepG2/C3A cells [3]; static culture): relatively unchanged
- decrease in maximal mitochondrial capacity (HepG2/C3A cells [3]; static culture): 87%
- decrease in extracellular acidification rate (ECAR) (HepG2/C3A cells [3]; [9]): 21±12%
- increase in glutamine oxidation rate (glutaminolysis) (HepG2/C3A cells [4]): 382±115%
- increase in glutaminolysis (HepG2/C3A cells [4]): 4±1 folds
- increase in mitochondrial membrane potential (MMP) (HepG2/C3A cells [5]; within 3 hours of exposure): 40±6%
- effect on mitochondrial membrane potential (MMP), in words (HepG2/C3A cells [5]; rotenone after 3 hours, troglitazone along 6 hours): significant increase
- glutamine uptake (outlet-inlet), in words (HepG2/C3A spheroids): increase in glutamine uptake
- increase in glutamine consumption (offline measurement) (HepG2/C3A spheroids): 30±4 folds
- CC50 [6]: 2 µM

SMILES: Cc1c(C)c2c(c(C)c1O)CCC(C)(COc1ccc(CC3SC(=O)NC3=O)cc1)O2 (stereo not drawn) [troglitazone]
- total glucose uptake rate (HepG2/C3A cells [1]): 2.5 nmol/min/10^6
- lactate over glucose ratio (HepG2/C3A cells [1]; 50 μM, 6 hours after exposure): 1.8
- increase in lactate production (HepG2/C3A cells [1]; 50 μM, within 4 to 5 hours): 51%
- decrease in oxidative phosphorylation flux (HepG2/C3A cells [2]; after 6 hours of exposure): 23%
- increase in glycolysis (flux) (HepG2/C3A cells [2]; after 6 hours of exposure): 51%
- ATP production, % of untreated cells (HepG2/C3A cells [2]): 97%
- Glutaminolysis (calculated metabolic flux) (HepG2/C3A cells [2]): 0.02 nmol/min/10^6 cells
- Glycolysis (calculated metabolic flux) (HepG2/C3A cells [2]): 2.25 nmol/min/10^6 cells
- Lipogenesis (calculated metabolic flux) (HepG2/C3A cells [2]): 0 nmol/min/10^6 cells
- Respiration (calculated metabolic flux) (HepG2/C3A cells [2]): 0.25 nmol/min/10^6 cells
- decrease in (mitochondrial) basal metabolic rate (HepG2/C3A cells [3]; static culture): 20±6%
- decrease in maximal mitochondrial capacity (HepG2/C3A cells [3]; static culture): 22±9%
- increase in extracellular acidification rate (ECAR) (HepG2/C3A cells [3]; [9]): 43±43%
- increase in glutamine oxidation rate (glutaminolysis) (HepG2/C3A cells [4]): 26±30%
- increase in mitochondrial membrane potential (MMP) (HepG2/C3A cells [5]; over 6 hours of exposure): 33±7%
- increase in glutamine consumption (offline measurement) (HepG2/C3A spheroids): 5±2 folds
- CC50 ([6]; read-out: TC50 in primary hepatocytes): 100 µM
